The source of these data is patent US9725683B2, “Surfactants and methods of making and using same” (priority 2013, dated 2017).

The structures appear in SMILES notation.

Series [1] in a line: Solubility of neutral fluorinated surfactants in water at 22° C. (capillary GC of saturated solutions). Format: physicochemical. The following applies: pure deionized water. On the procedure:
Various neutral fluorinated surfactants were tested to determine their solubility in pure deionized water.

The nature of series [2]: Surface Tension Test Method (Kruss K12 tensiometer, Wilhelmy plate). Format: physicochemical. On the procedure: Surface Tension Test Method
Surface tension was measured using a K12 process tensiometer (available from Kruss GmbH of Hamburg, Germany) using a Wilhemly plate method with a platinum PL01 plate (available from Krüss GmbH). Forty milliliters of the solution to be tested were placed in a 60 mL glass snap cap jar with an inner diameter of approximately 1.5 inches.

Where [3] appears, read: aqueous ammonium hydroxide, mole ratio 2.0, same concentrations.
Setting [4] is: aqueous TMAH, mole ratio 1.0, equivalent concentrations.
Where [5] appears, read: aqueous TMAH, mole ratio 2.0, same concentrations.

As to `O=S(=O)(N(CCO)CCOCCO)C(F)(F)C(F)(F)C(F)(F)C(F)(F)F` [V, C4F9SO2N(CH2CH2OCH2CH2OH)(CH2CH2OH)], the melting point is 45.1 °C. Also, the “% Soluble in water at 22 Deg C.” value in series [1] was 100 (miscible)^ %. Consider `O=S(=O)(NCCO)C(F)(F)C(F)(F)C(F)(F)C(F)(F)F` [A, reference compound], for which the “Surface tension in water compared” value in series [2] (setting [3]) is recorded as “roughly equivalent surface tensions”.

In the case of `CC(O)CNS(=O)(=O)C(F)(F)C(F)(F)C(F)(F)C(F)(F)F` (centres unmarked) [I, C4F9SO2N(H)CH2CH(CH3)OH], the melting point was found to be 80.33 °C. Further, in series [2] (setting [3]), the “Surface tension in water compared” value is reported as “roughly equivalent surface tensions”. In the case of `O=S(=O)(NCCOCCO)C(F)(F)C(F)(F)C(F)(F)C(F)(F)F` [III, C4F9SO2N(H)CH2CH2OCH2CH2OH], the melting point came out at 35.7 °C. Moreover, the “Surface tension in water compared” value in series [2] (setting [4]) is “significantly lower surface tensions than H-FBSE”. The “Surface tension in water compared” value in series [2] (setting [5]) is “significantly lower surface tension in water than H-FBSE”. Moreover, the “Surface tension in water compared” value in series [2] (setting [3]) is listed as “lower surface tension in water than the H-FBSE”. As for `CN(CCOCCO)S(=O)(=O)C(F)(F)C(F)(F)C(F)(F)C(F)(F)F` [VI, C4F9SO2N(CH3)(CH2CH2OCH2CH2OH)], the melting point stood at 80.5 °C. Further, the “% Soluble in water at 22 Deg C.” value in series [1] was 0.232%.

`CN(CCO)S(=O)(=O)C(F)(F)C(F)(F)C(F)(F)C(F)(F)F` [C, reference compound]: the “% Soluble in water at 22 Deg C.” value in series [1] was determined as 0.118%. Regarding `O=S(=O)(NCCOCCOCCO)C(F)(F)C(F)(F)C(F)(F)C(F)(F)F` [VIII, C4F9SO2NH(CH2CH2OCH2CH2OCH2CH2OH)], the “Surface tension in water compared” value is “significantly lower surface tensions than H-FBSE” in series [2] (setting [4]), “significantly lower surface tension in water than H-FBSE” in series [2] (setting [5]) and “lowest surface tension in water of all the materials tested” in series [2] (setting [3]).

For the compound `O=S(=O)(N(CCOCCO)CCOCCO)C(F)(F)C(F)(F)C(F)(F)C(F)(F)F` [IV, C4F9SO2N(CH2CH2OCH2CH2OH)2], in series [1], the “% Soluble in water at 22 Deg C.” value is 0.101%. Same read-out and setting: under `O=S(=O)(N(CCO)CCO)C(F)(F)C(F)(F)C(F)(F)C(F)(F)F` [B, reference compound] stands 0.0592%.
